Measured values from ChEMBL document CHEMBL1201862, “PubChem BioAssay data set” (2004).
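Step 1: Grow cells in 96-well plates. Step 2: Expose to compound for 48 hours at 5 concentrations. Step 3: Interpolate endpoints linearly; if unreached, use highest concentration. Here, GI50 denotes the concentration required for 50% inhibition of growth.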 Calls of active or inactive are those of the source. Rule as the data show it: active = GI50 up to about 1.1 µM and inactive = higher.

Legend:
Assay in all cases: growth of human tumour cells (NCI), 48 h
OVCAR-4 = test system: OVCAR-4
TK-10 = test system: TK-10
LOX IMVI = test system: LOX IMVI
MOLT-4 = test system: MOLT-4
OVCAR-8 = test system: OVCAR-8
UACC-257 = test system: UACC-257
A549 = test system: A549
NCI-H23 = test system: NCI-H23
IGROV-1 = test system: IGROV-1
K562 = test system: K562
A498 = test system: A498
NCI-H460 = test system: NCI-H460
ACHN = test system: ACHN
786-0 = test system: 786-0
UACC-62 = test system: UACC-62
OVCAR-3 = test system: OVCAR-3

| SMILES | GI50 (OVCAR-4) | GI50 (TK-10) | GI50 (LOX IMVI) | GI50 (MOLT-4) | GI50 (OVCAR-8) | GI50 (UACC-257) | GI50 (A549) | GI50 (NCI-H23) | GI50 (IGROV-1) | GI50 (K562) | GI50 (A498) | GI50 (NCI-H460) | GI50 (ACHN) | GI50 (786-0) | GI50 (UACC-62) | GI50 (OVCAR-3) |
| --- | --- | --- | --- | --- | --- | --- | --- | --- | --- | --- | --- | --- | --- | --- | --- | --- |
| COc1nc(N)c(C(=O)CCl)c(=O)n1C | 15.4 µM (inactive) | 14.7 µM (inactive) | 5.28 µM (inactive) | 13.9 µM (inactive) | 19 µM (inactive) | 11.5 µM (inactive) | 18 µM (inactive) | > 10 µM (inactive) | 13.6 µM (inactive) | 8.17 µM (inactive) | 15.4 µM (inactive) | 19 µM (inactive) | 20.6 µM (inactive) | – | – | – |
| Cn1cc(NC(=O)c2cc(NC(=O)CCCCCCCC(=O)Nc3cc(C(=O)Nc4cc(C(=O)NCCC(=N)N)n(C)c4)n(C)c3)cn2C)cc1C(=O)NCCC(=N)N | 46.1 µM (inactive) | 15 µM (inactive) | 15 µM (inactive) | 21.9 µM (inactive) | 19.1 µM (inactive) | 5.7 µM (inactive) | 13.9 µM (inactive) | 17.3 µM (inactive) | 5.82 µM (inactive) | 11 µM (inactive) | 13.7 µM (inactive) | 4.69 µM (inactive) | 58.1 µM (inactive) | 34 µM (inactive) | 15.7 µM (inactive) | 32.1 µM (inactive) |
| C#CCC[C@@H]1O[C@@]1(C)CC/C=C(\C)CC/C=C/C=O | – | – | 18.4 µM (inactive) | 22.4 µM (inactive) | 18.6 µM (inactive) | 23.6 µM (inactive) | 43.6 µM (inactive) | 29 µM (inactive) | 22.1 µM (inactive) | 22.6 µM (inactive) | – | 41.1 µM (inactive) | 50.1 µM (inactive) | 73.5 µM (inactive) | 17.9 µM (inactive) | 29.8 µM (inactive) |
| O=C(/N=C(/Nc1ccccc1)SCS/C(=N\C(=O)c1ccco1)Nc1ccccc1)c1ccco1 | 82.2 µM (inactive) | 29.4 µM (inactive) | > 100 µM (inactive) | > 100 µM (inactive) | 50.6 µM (inactive) | > 100 µM (inactive) | 41.5 µM (inactive) | 24.4 µM (inactive) | 63.4 µM (inactive) | > 100 µM (inactive) | 27.1 µM (inactive) | > 100 µM (inactive) | 38.8 µM (inactive) | 35.2 µM (inactive) | > 100 µM (inactive) | 40.8 µM (inactive) |
| CCN(CC)c1ccc(/N=N\c2ccc(-c3nc4ccc[n+](C)c4s3)cc2)cc1 | 6.5 µM (inactive) | 20 µM (inactive) | 0.423 µM (active) | 2.84 µM (inactive) | 8.57 µM (inactive) | 5.01 µM (inactive) | 4.2 µM (inactive) | 5.5 µM (inactive) | 8.18 µM (inactive) | 2.4 µM (inactive) | 13.4 µM (inactive) | 4.01 µM (inactive) | – | 17.1 µM (inactive) | 7.59 µM (inactive) | 3.53 µM (inactive) |
| CN(C)CCC1(C2=CCCC2)CC/C(=C\c2ccc3c(c2)OCO3)C1=O (stereo unspecified) | 13.5 µM (inactive) | 15.8 µM (inactive) | – | 12.3 µM (inactive) | 15.6 µM (inactive) | 15.5 µM (inactive) | 16 µM (inactive) | 18.4 µM (inactive) | > 10 µM (inactive) | 11.5 µM (inactive) | 12.2 µM (inactive) | 18.4 µM (inactive) | 16.1 µM (inactive) | 14 µM (inactive) | 21.5 µM (inactive) | 15.8 µM (inactive) |
| O=C1N[C@@H]2CCCC[C@@H]2C12CCCCC2 | > 100 µM (inactive) | > 100 µM (inactive) | > 100 µM (inactive) | > 100 µM (inactive) | > 100 µM (inactive) | > 100 µM (inactive) | > 100 µM (inactive) | > 100 µM (inactive) | > 100 µM (inactive) | > 100 µM (inactive) | > 100 µM (inactive) | > 100 µM (inactive) | > 100 µM (inactive) | > 100 µM (inactive) | > 100 µM (inactive) | > 100 µM (inactive) |
| NC(=O)CCC(N=C(N)c1csc(C2OC(CO)C(O)C2O)n1)C(=O)O (stereo unspecified) | > 100 µM (inactive) | > 100 µM (inactive) | > 100 µM (inactive) | > 100 µM (inactive) | > 100 µM (inactive) | > 100 µM (inactive) | > 100 µM (inactive) | > 100 µM (inactive) | > 100 µM (inactive) | > 100 µM (inactive) | > 100 µM (inactive) | – | > 100 µM (inactive) | – | > 100 µM (inactive) | – |
| Cc1cccc(Cl)c1NC(N)=S | 50.9 µM (inactive) | 50.9 µM (inactive) | – | 47.1 µM (inactive) | 25.8 µM (inactive) | > 100 µM (inactive) | 82.8 µM (inactive) | 83 µM (inactive) | 35.4 µM (inactive) | 28.3 µM (inactive) | 66.7 µM (inactive) | 51.3 µM (inactive) | 27.5 µM (inactive) | 20.2 µM (inactive) | 69.7 µM (inactive) | 26.4 µM (inactive) |
| O=c1cccccc1NCCOCCNc1cccccc1=O | > 100 µM (inactive) | > 100 µM (inactive) | > 100 µM (inactive) | > 100 µM (inactive) | > 100 µM (inactive) | > 100 µM (inactive) | > 100 µM (inactive) | > 100 µM (inactive) | > 100 µM (inactive) | > 100 µM (inactive) | > 100 µM (inactive) | > 100 µM (inactive) | > 100 µM (inactive) | > 100 µM (inactive) | > 100 µM (inactive) | > 100 µM (inactive) |
| Cc1ccc2nc(/C(=C/c3ccc(/C=C(\NC(=O)c4ccccc4)c4nc5ccc(C)cc5[nH]4)c(C)c3)NC(=O)c3ccccc3)[nH]c2c1 | – | 47.1 µM (inactive) | – | 0.383 µM (active) | 7.01 µM (inactive) | – | 6.14 µM (inactive) | 19.7 µM (inactive) | 1.81 µM (inactive) | 0.785 µM (active) | 11.4 µM (inactive) | 13.2 µM (inactive) | 8.45 µM (inactive) | 9.02 µM (inactive) | 1.14 µM (inactive) | 6.19 µM (inactive) |
| CC#N.O[C@@H]1CCCC[C@H]1O.O[C@@H]1CCCC[C@H]1O.[TeH2] | 61.8 µM (inactive) | > 100 µM (inactive) | 9.57 µM (inactive) | 27.4 µM (inactive) | 19 µM (inactive) | > 100 µM (inactive) | 41.5 µM (inactive) | 20.8 µM (inactive) | 41.6 µM (inactive) | 25.8 µM (inactive) | > 100 µM (inactive) | 2.99 µM (inactive) | 46.3 µM (inactive) | 48.8 µM (inactive) | 82.2 µM (inactive) | 19.1 µM (inactive) |
| CCCCCCCCCCCCCCNCC(OC)OC | 15.1 µM (inactive) | 17.4 µM (inactive) | 16.4 µM (inactive) | – | 20.1 µM (inactive) | 19.4 µM (inactive) | 19.5 µM (inactive) | 20.2 µM (inactive) | 17 µM (inactive) | – | 19.8 µM (inactive) | 17.8 µM (inactive) | 16.2 µM (inactive) | 16 µM (inactive) | 19.6 µM (inactive) | 17.3 µM (inactive) |
| C=C(C)C(=O)OC1C/C(CO)=C\C(O)C/C(C)=C/C2OC(=O)C(=C)C21 (stereo unspecified) | 25.9 µM (inactive) | 21.1 µM (inactive) | 18.5 µM (inactive) | 21.3 µM (inactive) | 20.3 µM (inactive) | – | 64.4 µM (inactive) | > 10 µM (inactive) | 48.4 µM (inactive) | 18 µM (inactive) | – | 17.7 µM (inactive) | 21.3 µM (inactive) | 16 µM (inactive) | 19.9 µM (inactive) | 25.1 µM (inactive) |
| O=S(=O)(c1ccccc1)c1nccs1 | > 100 µM (inactive) | > 100 µM (inactive) | > 100 µM (inactive) | > 100 µM (inactive) | > 100 µM (inactive) | > 100 µM (inactive) | > 100 µM (inactive) | > 100 µM (inactive) | > 100 µM (inactive) | > 100 µM (inactive) | > 100 µM (inactive) | > 100 µM (inactive) | > 100 µM (inactive) | > 100 µM (inactive) | > 100 µM (inactive) | > 100 µM (inactive) |
| COC(=O)c1sc(C(=O)OC)c2c1C[S+]([O-])C2 | > 100 µM (inactive) | > 100 µM (inactive) | > 100 µM (inactive) | > 100 µM (inactive) | > 100 µM (inactive) | > 100 µM (inactive) | > 100 µM (inactive) | > 100 µM (inactive) | > 100 µM (inactive) | > 100 µM (inactive) | > 100 µM (inactive) | – | – | > 100 µM (inactive) | > 100 µM (inactive) | > 100 µM (inactive) |
| NNC(=O)N/N=C1/C(=O)N(c2ccc(Cl)c(Cl)c2)C(=O)C(=O)C1c1nc2ccccc2o1 (stereo unspecified) | > 100 µM (inactive) | > 100 µM (inactive) | > 100 µM (inactive) | 78.9 µM (inactive) | > 100 µM (inactive) | > 100 µM (inactive) | > 100 µM (inactive) | > 100 µM (inactive) | > 100 µM (inactive) | > 100 µM (inactive) | > 100 µM (inactive) | – | > 100 µM (inactive) | > 100 µM (inactive) | 67.1 µM (inactive) | > 100 µM (inactive) |
| CCCc1nc(NC#N)nc(C(=O)NC23CC4CC(CC(C4)C2)C3)c1C | > 100 µM (inactive) | > 100 µM (inactive) | > 100 µM (inactive) | > 100 µM (inactive) | > 100 µM (inactive) | > 100 µM (inactive) | > 100 µM (inactive) | > 100 µM (inactive) | > 100 µM (inactive) | > 100 µM (inactive) | > 100 µM (inactive) | > 100 µM (inactive) | > 100 µM (inactive) | > 100 µM (inactive) | > 100 µM (inactive) | > 100 µM (inactive) |
